Reference: patent US20200085776A1, “Methods of Reducing C-Reactive Protein and/or Treating Cardiovascular Disease” (CARDAX, INC., priority 2018, published 2020)

System: C-reactive protein (CRP)
Test: CRP (hs-CRP) in blood, CHASE clinical study
Format: in vivo, human
Conditions: Group X 12 mg BID; for CRP Max / CRP Mean (SD) / CRP Median / CRP Min: V6 Week 12
From the text: This is a two-part study comprising Part I and Part II. Following screening, Part I consists of a randomized, double-blind, placebo controlled dosing period of up to 12 weeks. The study shall be conducted at one or more study sites in Hawaii. Approximately 360 subjects qualified after completion of screening procedures shall be randomized in a 1:1:1 ratio to one of three treatment groups, per Table 1.
The Part I 12-week double-blind dosing period commences with V2, including randomization and first dose of study product, and continues with study visits at Week 1-2 (V3), Week 4 (V4), Week 8 (V5), and Week 12 (V6). V6 procedures will conclude Part I.
Blood shall be obtained at each visit for CRP. The screening specimen shall be processed at the local lab and reported to the study staff for eligibility determination; CRP samples at V7 and V8 may also be processed locally and reported directly to study staff. Samples for CRP from V2 through V6 may be batched, processed, and reported as specified in the Laboratory Manual.
At each these visits, blood was obtained for measurement of CRP, among other parameters. Table 7A provides a summary of the CRP measurements (mg/L) at each visit and Table 7B provides a summary of the differences of CRP levels between V2 and V6.

[1] = subjects with DM2, hypertension and hyperlipidemia but not CAD
[2] = subjects with Diabetes Mellitus Type II
[3] = subjects with baseline level greater than 2.0
[4] = baseline to Week 12, all subjects
[5] = baseline to Week 12, subjects not taking a hypertension agent
[6] = baseline to Week 12, subjects not taking any cardiac therapeutic agent
[7] = baseline to Week 12, subjects not taking statins
[8] = baseline to Week 12, subjects taking an anti-diabetic agent
[9] = baseline to Week 12, subjects with CAD
[10] = baseline to Week 12, subjects with DM2, hypertension and hyperlipidemia but not CAD
[11] = baseline to Week 12, subjects with Diabetes Mellitus Type II
[12] = baseline to Week 12, subjects with baseline level greater than 2.0
[13] = baseline to Week 12, subjects with hyperlipidemia

## CC1=C(/C=C/C(C)=C/C=C/C(C)=C/C=C/C=C(C)/C=C/C=C(C)/C=C/C2=C(C)C(=O)C(O)CC2(C)C)C(C)(C)CC(O)C1=O (stereo not drawn) [Astaxanthin, astaxanthin]
[1]
  CRP Max: 6.80 mg/L
  CRP Mean (SD): 2.95 (2.32) mg/L
  CRP Median: 1.91 mg/L
  CRP Min: 1.02 mg/L
[2]
  CRP Max: 6.80 mg/L
  CRP Mean (SD): 2.91 (2.07) mg/L
  CRP Median: 2.32 mg/L
  CRP Min: 1.02 mg/L
[3]
  CRP Max: 11.04 mg/L
  CRP Mean (SD): 3.69 (3.14) mg/L
  CRP Median: 2.71 mg/L
  CRP Min: 0.22 mg/L
Subjects with hyperlipidemia
  CRP Max: 11.04 mg/L
  CRP Mean (SD): 3.90 (3.38) mg/L
  CRP Median: 2.71 mg/L
  CRP Min: 1.02 mg/L
[4]
  CRP V2 to V6 % Change Max: 122.6%
  CRP V2 to V6 % Change Mean: −21.3%
  CRP V2 to V6 % Change Median: −31.8%
  CRP V2 to V6 % Change Min: −89.8%
  CRP V2 to V6 Change Max: 6.08 mg/L
  CRP V2 to V6 Change Mean: -2.07 mg/L
  CRP V2 to V6 Change Median: -1.57 mg/L
  CRP V2 to V6 Change Min: -11.1 mg/L
[5]
  CRP V2 to V6 % Change Max: −25.8, −25.8%
  CRP V2 to V6 % Change Mean (SD): −25.8%
  CRP V2 to V6 % Change Median: −25.8%
  CRP V2 to V6 % Change Min: −25.8, −25.8%
  CRP V2 to V6 Change Max: −0.94, −0.94 mg/L
  CRP V2 to V6 Change Mean (SD): -0.94 mg/L
  CRP V2 to V6 Change Median: -0.94 mg/L
  CRP V2 to V6 Change Min: −0.94, −0.94 mg/L
[6]
  CRP V2 to V6 % Change Max: −25.8%
  CRP V2 to V6 % Change Mean (SD): −56.6 (29.46) %
  CRP V2 to V6 % Change Median: −61.9%
  CRP V2 to V6 % Change Min: −89.8%
  CRP V2 to V6 Change Max: -0.37 mg/L
  CRP V2 to V6 Change Mean (SD): −4.28 (4.63) mg/L
  CRP V2 to V6 Change Median: -1.94 mg/L
  CRP V2 to V6 Change Min: -11.1 mg/L
[7]
  CRP V2 to V6 % Change Max: 122.6%
  CRP V2 to V6 % Change Mean (SD): 2.34 (88.58) %
  CRP V2 to V6 % Change Median: −25.6%
  CRP V2 to V6 % Change Min: −89.8%
  CRP V2 to V6 Change Max: 6.08 mg/L
  CRP V2 to V6 Change Mean (SD): −0.18 (4.04) mg/L
  CRP V2 to V6 Change Median: -0.80 mg/L
  CRP V2 to V6 Change Min: -5.89 mg/L
[8]
  CRP V2 to V6 % Change** Max: −26.6%
  CRP V2 to V6 % Change** Mean (SD): −52.9 (20.70) %
  CRP V2 to V6 % Change** Median: −55.7%
  CRP V2 to V6 % Change** Min: −78.8%
  CRP V2 to V6 Change Max: -0.37 mg/L
  CRP V2 to V6 Change Mean (SD): −4.61 (4.14) mg/L
  CRP V2 to V6 Change Median: -3.76 mg/L
  CRP V2 to V6 Change Min: -11.1 mg/L
[9]
  CRP V2 to V6 % Change Max: −68.4%
  CRP V2 to V6 % Change Mean (SD): −68.4%
  CRP V2 to V6 % Change Median: −68.4%
  CRP V2 to V6 % Change Min: −68.48%
  CRP V2 to V6 Change Max: −5.89, −5.89 mg/L
  CRP V2 to V6 Change Mean (SD): -5.89 mg/L
  CRP V2 to V6 Change Median: -5.89 mg/L
  CRP V2 to V6 Change Min: −5.89, −5.89 mg/L
[10]
  CRP V2 to V6 % Change Max: −26.6%
  CRP V2 to V6 % Change Mean (SD): −49.7 (21.51) %
  CRP V2 to V6 % Change Median: −49.5%
  CRP V2 to V6 % Change Min: −78.8%
  CRP V2 to V6 Change Max: -0.37 mg/L
  CRP V2 to V6 Change Mean (SD): −4.35 (4.57) mg/L
  CRP V2 to V6 Change Median: -1.63 mg/L
  CRP V2 to V6 Change Min: -11.1 mg/L
[11]
  CRP V2 to V6 % Change Max: −26.6%
  CRP V2 to V6 % Change Mean (SD): −52.9 (20.70) %
  CRP V2 to V6 % Change Median: −55.7%
  CRP V2 to V6 % Change Min: −78.8%
  CRP V2 to V6 Change Max: -0.37 mg/L
  CRP V2 to V6 Change Mean (SD): −4.61 (4.14) mg/L
  CRP V2 to V6 Change Median: -3.76 mg/L
  CRP V2 to V6 Change Min: -11.1 mg/L
[12]
  CRP V2 to V6 % Change Max: 122.6%
  CRP V2 to V6 % Change Mean (SD): −20.8 (73.37) %
  CRP V2 to V6 % Change Median: −40.7%
  CRP V2 to V6 % Change Min: −89.8%
  CRP V2 to V6 Change Max: 6.08 mg/L
  CRP V2 to V6 Change Mean (SD): −2.24 (4.83) mg/L
  CRP V2 to V6 Change Median: -1.60 mg/L
  CRP V2 to V6 Change Min: -11.1 mg/L
[13]
  CRP V2 to V6 % Change Max: 122.6%
  CRP V2 to V6 % Change Mean (SD): −27.5 (63.84) %
  CRP V2 to V6 % Change Median: −40.7%
  CRP V2 to V6 % Change Min: −78.8%
  CRP V2 to V6 Change Max: 6.08 mg/L
  CRP V2 to V6 Change Mean (SD): −2.81 (5.17) mg/L
  CRP V2 to V6 Change Median: -1.60 mg/L
  CRP V2 to V6 Change Min: -11.1 mg/L
